Several values for one entry are separate records, joined by “and”; a condition that tells them apart may be missing. Equal entries are not always repeated. Inconclusive results and toxic doses are left out.
Test system: P388 leukemia ip, CD2F1 mice, survival T/C
Assay: NCI In Vivo Anticancer Drug Screen. Data for tumor model P388 Leukemia (intraperitoneal) in CD2F1 (CDF1) mice
Settings: endpoint: median survival time, higher = longer survival
Outline: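 Mice carrying the transplanted tumor received test compound or vehicle. Survival was recorded in each group, and the value is the treated-group measurement divided by that of the vehicle-treated control group.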

[1] = dose: 25.0 mg/kg/injection, schedule: Q04DX003 (ip), vehicle: saline with Tween-80
[2] = dose: 100.0 mg/kg/injection, schedule: Q04DX003 (ip), vehicle: saline with Tween-80
[3] = dose: 50.0 mg/kg/injection, schedule: Q01DX009 (ip), vehicle: saline
[4] = dose: 100.0 mg/kg/injection, schedule: Q01DX009 (ip), vehicle: saline
[5] = dose: 200.0 mg/kg/injection, schedule: Q01DX009 (ip), vehicle: saline
[6] = dose: 50.0 mg/kg/injection, schedule: Q01DX009 (ip), vehicle: saline with Tween-80
[7] = dose: 100.0 mg/kg/injection, schedule: Q01DX009 (ip), vehicle: saline with Tween-80

Structure (SMILES): COc1cc(C2NC(=S)NC2=S)ccc1O (stereo not given)
- T/C [1]: 109 % of control
- T/C (dose: 50.0 mg/kg/injection, schedule: Q04DX003 (ip), vehicle: saline with Tween-80): 104 % of control
- T/C [2]: 109 % of control

Structure (SMILES): O=S(=O)(OC1CCC2CCC1O2)c1ccc(Br)cc1 (stereo not given)
- T/C [3]: 86 % of control
- T/C [4]: 100 % of control
- T/C [5]: 100 % of control

Structure (SMILES): O=C1OC(=O)C2C3C=CC(C4C=CC43)C12 (stereo not given)
- T/C (dose: 25.0 mg/kg/injection, schedule: Q01DX009 (ip), vehicle: Klucel (hydroxypropylcellulose) (HPC)): 106 % of control
- T/C (dose: 50.0 mg/kg/injection, schedule: Q01DX009 (ip), vehicle: Klucel (hydroxypropylcellulose) (HPC)): 115 % of control
- T/C (dose: 100.0 mg/kg/injection, schedule: Q01DX009 (ip), vehicle: Klucel (hydroxypropylcellulose) (HPC)): 115 % of control
- T/C (dose: 200.0 mg/kg/injection, schedule: Q01DX009 (ip), vehicle: Klucel (hydroxypropylcellulose) (HPC)): 97 % of control

Structure (SMILES): CNCCCCCc1cc(-c2ccc([N+](=O)[O-])cc2)on1
- T/C [2]: 95 % of control
- T/C (dose: 200.0 mg/kg/injection, schedule: Q04DX003 (ip), vehicle: saline with Tween-80): 100 % of control

Structure (SMILES): Cc1csc2nc(-c3ccccc3)c(/C=N/NC(=O)CN(C)C)n12
- T/C (dose: 60.0 mg/kg/injection, schedule: Q01DX005 (ip), vehicle: saline with Tween-80): 110 % of control
- T/C (dose: 120.0 mg/kg/injection, schedule: Q01DX005 (ip), vehicle: saline with Tween-80): 103 % of control
- T/C (dose: 240.0 mg/kg/injection, schedule: Q01DX005 (ip), vehicle: saline with Tween-80): 99 % of control

Structure (SMILES): CCCOc1c(C)cc(C(=O)CCN2CCOCC2)cc1Cl
- T/C [6]: 113 % of control
- T/C [7]: 112 % of control
- T/C (dose: 200.0 mg/kg/injection, schedule: Q01DX009 (ip), vehicle: saline with Tween-80): 99 % of control

Structure (SMILES): S=P(N1CCCC1)(N1CC1)N1CC1
- T/C (dose: 2.2 mg/kg/injection, schedule: Q01DX009 (ip), vehicle: saline): 111 % of control
- T/C (dose: 3.3 mg/kg/injection, schedule: Q01DX009 (ip), vehicle: saline): 155 % of control
- T/C (dose: 7.5 mg/kg/injection, schedule: Q01DX009 (ip), vehicle: saline): 177 % of control
- T/C (dose: 11.0 mg/kg/injection, schedule: Q04DX003 (ip), vehicle: saline with Tween-80): 104 % of control
- T/C [1]: 200 % of control
- T/C (dose: 37.5 mg/kg/injection, schedule: Q04DX003 (ip), vehicle: saline with Tween-80): 90 % of control

Structure (SMILES): Cc1ccc(SSC(=S)Nc2ccccc2)cc1
- T/C (dose: 12.5 mg/kg/injection, schedule: Q01DX009 (ip), vehicle: saline with Tween-80): 93 % of control
- T/C (dose: 25.0 mg/kg/injection, schedule: Q01DX009 (ip), vehicle: saline with Tween-80): 90 % of control
- T/C [6]: 100 % of control and 114 % of control
- T/C [7]: 114 % of control

Structure (SMILES): Cc1ccc(-n2c(N)cc(=O)[nH]c2=S)nc1
- T/C (dose: 56.25 mg/kg/injection, schedule: Q01DX001 (ip), vehicle: saline with Tween-80): 104 % of control
- T/C (dose: 112.5 mg/kg/injection, schedule: Q01DX001 (ip), vehicle: saline with Tween-80): 100 % of control
- T/C (dose: 225.0 mg/kg/injection, schedule: Q01DX001 (ip), vehicle: saline with Tween-80): 90 % of control

Structure (SMILES): Brc1ccc(/C=C/c2ccnnc2)cc1
- T/C [3]: 93 % of control
- T/C [4]: 94 % of control
- T/C [5]: 100 % of control

Structure (SMILES): CC1=C[P+](c2ccccc2)(c2ccccc2)c2ccccc2O1
- T/C (dose: 1.56 mg/kg/injection, schedule: Q01DX005 (ip), vehicle: Klucel (hydroxypropylcellulose) (HPC)): 96 % of control
- T/C (dose: 3.12 mg/kg/injection, schedule: Q01DX005 (ip), vehicle: Klucel (hydroxypropylcellulose) (HPC)): 109 % of control
- T/C (dose: 6.25 mg/kg/injection, schedule: Q01DX005 (ip), vehicle: Klucel (hydroxypropylcellulose) (HPC)): 110 % of control

Structure (SMILES): CCCCC[CH2][Ge]([CH2]CCC)([CH2]CCC)[CH]1CCCCC1
- T/C [3]: 106 % of control
- T/C [4]: 103 % of control
- T/C [5]: 95 % of control

Source: PubChem BioAssay AID330 (DTP/NCI, 2004)
